System: not listed separately
Assay: Binding to alum in 10 mM histidine buffer, LC-MS/MS of supernatant
Format: physicochemical
Settings: 10 mM histidine buffer pH 6.8; final compound 0.1 mg/mL; 37° C. for 5 hours; 100% minus % unbound
Description: The resulting solution was diluted 10-fold with blank histidine buffer to a final compound concentration of 0.1 mg/mL. Diluted solutions were incubated at 37° C. for 5 hours. The samples were centrifuged at 14,000 rpm for 10 minutes to pellet the insoluble. The supernatant (along with an internal standard) was then evaluated by LC-MS/MS using a ballistic gradient (from 5% CH3CN-0.5% formic acid to 95% CH3CN-1.0% formic acid in 3.5 minutes) on a Waters Atlantis dC18 (50 mm×2.1 mm) column at room temperature against a calibration curve prepared at known compound concentrations ranging from 0.005 to 50 μM. The concentration in the supernatant was calculated as % unbound to alum compared to control; the % bound to alum was calculated as 100% minus % unbound.

Structure (SMILES)	% Alum bound in Histidine buffer
Cc1cc(OCCOCCC(F)(F)P(=O)(O)O)ccc1CCc1cnc2c(N)nc3cc(CCC(=O)O)ccc3c2c1 [Compound 19, 3-(5-amino-2-(4-(2-(3,3-difluoro-3-phosphonopropoxy)ethoxy)-2-methylphenethyl)benzo[f][1,7]naphthyridin-8-yl)propanoic acid]	96.0%
Cc1cc(OCCOCCOCCP(=O)(O)O)ccc1CCc1cnc2c(N)nc3cc(CCC(=O)O)ccc3c2c1 [Compound 20, 3-(5-amino-2-(2-methyl-4-(2-(2-(2-phosphonoethoxy)ethoxy)ethoxy)phenethyl)benzo[f][1,7]naphthyridin-8-yl)propanoic acid]	97.0%
Cc1ccc2c(c1)nc(N)c1ncc(CCc3ccc(OCCOCCOCCC(F)(F)P(=O)(O)O)cc3C)cc12 [Compound 6, 3-(2-(2-(4-(2-(5-amino-8-methylbenzo[f][1,7]naphthyridin-2-yl)ethyl)-3-methylphenoxy)ethoxy)ethoxy)-1,1-difluoropropylphosphonic acid]	98.2%

Target: T1, human TLR7 (Homo sapiens, UniProt Q9NYK1)
T1 construct: expressed in transfected cells; host or cells: HEK 293 (human embryonic kidney 293), stably transfected; co-transfected pNifty-Luciferase reporter
T1 sequence (Q9NYK1 27-1049): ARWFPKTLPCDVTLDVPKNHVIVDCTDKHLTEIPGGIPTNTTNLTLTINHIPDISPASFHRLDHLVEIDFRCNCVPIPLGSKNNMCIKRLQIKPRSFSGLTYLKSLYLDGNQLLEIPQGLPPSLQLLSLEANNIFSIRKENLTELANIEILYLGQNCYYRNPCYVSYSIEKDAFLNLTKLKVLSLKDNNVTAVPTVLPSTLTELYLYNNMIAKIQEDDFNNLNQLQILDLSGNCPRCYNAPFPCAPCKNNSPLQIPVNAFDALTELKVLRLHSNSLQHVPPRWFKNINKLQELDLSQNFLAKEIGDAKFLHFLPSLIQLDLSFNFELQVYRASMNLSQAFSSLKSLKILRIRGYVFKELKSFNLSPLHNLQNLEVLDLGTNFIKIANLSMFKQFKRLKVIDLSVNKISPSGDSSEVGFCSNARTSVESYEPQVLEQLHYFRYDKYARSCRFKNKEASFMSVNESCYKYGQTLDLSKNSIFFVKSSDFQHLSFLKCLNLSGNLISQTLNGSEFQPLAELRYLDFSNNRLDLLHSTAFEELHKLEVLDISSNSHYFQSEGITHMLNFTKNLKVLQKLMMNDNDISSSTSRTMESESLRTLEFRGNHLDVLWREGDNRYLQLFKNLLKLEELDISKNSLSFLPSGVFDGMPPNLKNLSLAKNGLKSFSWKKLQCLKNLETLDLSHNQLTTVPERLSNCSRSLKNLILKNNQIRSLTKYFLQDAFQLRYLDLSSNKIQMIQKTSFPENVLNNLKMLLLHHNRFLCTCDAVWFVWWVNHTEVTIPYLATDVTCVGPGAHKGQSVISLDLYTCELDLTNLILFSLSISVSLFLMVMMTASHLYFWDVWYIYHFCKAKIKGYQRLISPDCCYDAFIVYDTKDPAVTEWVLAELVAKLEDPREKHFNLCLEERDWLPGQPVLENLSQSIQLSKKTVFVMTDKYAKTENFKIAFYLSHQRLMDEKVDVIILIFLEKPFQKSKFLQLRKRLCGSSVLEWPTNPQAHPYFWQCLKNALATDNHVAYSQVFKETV
Assay: Reporter gene assay: HEK293 cells stably transfected with human TLR7 and NF-kB-driven luciferase reporter
Format: cell-based
Settings: not given
Description: Human embryonic kidney 293 (HEK 293) cells were stably transfected with human TLR7 and an NF-kB-driven luciferase reporter vector (pNifty-Luciferase). As a control assay, normal Hek293 transfected with pNifty-Luc were used. Cells were cultured in DMEM supplemented with 2 mM L-glutamine, 10% heart inactivated FBS, 1% penicillin and streptomycin, 2 μg/ml puromycin (InvivoGen #ant-pr-5) and 5 μg/ml of blasticidin (Invitrogen #46-1120). Bright-Glo™ Luciferase assay buffer and substrate were supplied by Promega #E263B and #E264B (assay substrate and buffer respectively). 384 well clear-bottom plates were supplied by Greiner bio-one (#789163-G) and were custom bar-coded plates.
Cells were plated at 25,000 cells/well in 384-well plates in a final volume of 50 μl of media. Cells were allowed to adhere to the plates after overnight (18 hours) culture at 37° C. and 5% CO2. Serially diluted experimental and positive control compounds were then dispensed to each well and incubated for 7 hours at 37° C. and 5% CO2. Cells stimulated with DMSO alone also serve as negative controls. After the incubation, 30 μl of the pre-mix assay buffer and substrate buffer were added to each well according to manufacturer's instructions.
The EC50 value in those experiments is given as that concentration of the test compound in question that provoke a response halfway between the baseline and maximum responses. […] Such EC50 values are obtained relative to the activity of resiquimod set to 100%.

Structure (SMILES)	EC50
Cc1cc(OCCCP(=O)(O)O)ccc1CCc1cnc2c(N)nc3cc(CCC(=O)O)ccc3c2c1 [Compound 15, 3-(5-amino-2-(2-methyl-4-(3-phosphonopropoxy)phenethyl)benzo[f][1,7]naphthyridin-8-yl)propanoic acid]	65 nM
COc1ccc(CCc2cnc3c(N)nc4cc(CCP(=O)(O)O)ccc4c3c2)c(C)c1 [Compound 11, 2-(5-amino-2-(4-methoxy-2-methylphenethyl)benzo[f][1,7]naphthyridin-8-yl)ethylphosphonic acid]	90 nM
COc1ccc(CCc2cnc3c(N)nc4cc(/C=C/P(=O)(O)O)ccc4c3c2)c(C)c1 [Compound 10, (E)-2-(5-Amino-2-(4-methoxy-2-methylphenethyl)benzo[f][1,7]naphthyridin-8-yl)vinylphosphonic acid]	153 nM
Cc1ccc2c(c1)nc(N)c1ncc(CCc3ccc(OCCCCC(F)(F)P(=O)(O)O)cc3C)cc12 [Compound 4, 5-(4-(2-(5-amino-8-methylbenzo[f][1,7]naphthyridin-2-yl)ethyl)-3-methylphenoxy)-1,1-difluoropentylphosphonic acid]	559 nM
Cc1cc(OCCOCCOCCP(=O)(O)O)ccc1CCc1cnc2c(N)nc3cc(CCC(=O)O)ccc3c2c1 [Compound 20, 3-(5-amino-2-(2-methyl-4-(2-(2-(2-phosphonoethoxy)ethoxy)ethoxy)phenethyl)benzo[f][1,7]naphthyridin-8-yl)propanoic acid]	384 nM
Cc1ccc2c(c1)nc(N)c1ncc(CCc3ccc(OCc4ccc(CP(=O)(O)O)cc4)cc3C)cc12 [Compound 25, 4-((4-(2-(5-amino-8-methylbenzo[f][1,7]naphthyridin-2-yl)ethyl)-3-methylphenoxy)methyl)benzylphosphonic acid]	975 nM
Cc1ccc2c(c1)nc(N)c1ncc(CCc3ccc(OCCCCCC(F)(F)P(=O)(O)O)cc3C)cc12 [Compound 24, 6-(4-(2-(5-amino-8-methylbenzo[f][1,7]naphthyridin-2-yl)ethyl)-3-methylphenoxy)-1,1-difluorohexylphosphonic acid]	4260 nM
COc1ccc(CCc2cnc3c(N)nc4cc(/C=C(\F)P(=O)(O)O)ccc4c3c2)c(C)c1 [Compound 12, (E)-2-(5-Amino-2-(4-methoxy-2-methylphenethyl)benzo[f][1,7]naphthyridin-8-yl)-1-fluorovinylphosphonic acid]	201 nM
Cc1ccc2c(c1)nc(N)c1ncc(CCc3ccc(OCc4ccc(CC(F)(F)P(=O)(O)O)cc4)cc3C)cc12 [Compound 8, 2-(4-((4-(2-(5-amino-8-methylbenzo[f][1,7]naphthyridin-2-yl)ethyl)-3-methylphenoxy)methyl)phenyl)-1,1-difluoroethylphosphonic acid]	375 nM
Cc1ccc2c(c1)nc(N)c1ncc(CCc3ccc(OCCOCCOCCC(F)(F)P(=O)(O)O)cc3C)cc12 [Compound 6, 3-(2-(2-(4-(2-(5-amino-8-methylbenzo[f][1,7]naphthyridin-2-yl)ethyl)-3-methylphenoxy)ethoxy)ethoxy)-1,1-difluoropropylphosphonic acid]	1640 nM
Cc1ccc2c(c1)nc(N)c1ncc(CCc3ccc(OCCCCP(=O)(O)O)cc3C)cc12 [Compound 28, 4-(4-(2-(5-amino-8-methylbenzo[f][1,7]naphthyridin-2-yl)ethyl)-3-methylphenoxy)butylphosphonic acid]	524 nM
Cc1ccc2c(c1)nc(N)c1ncc(CCc3ccc(OCCCCCP(=O)(O)O)cc3C)cc12 [Compound 27, 5-(4-(2-(5-amino-8-methylbenzo[f][1,7]naphthyridin-2-yl)ethyl)-3-methylphenoxy)pentylphosphonic acid]	921 nM
COc1ccc(CCc2cnc3c(N)nc4cc(C(=O)P(=O)(O)O)ccc4c3c2)c(C)c1 [Compound 14, 5-amino-2-(4-methoxy-2-methylphenethyl)benzo[f][1,7]naphthyridine-8-carbonylphosphonic acid]	885 nM
COc1ccc(CCc2cnc3c(N)nc4cc(C(=O)C(F)(F)P(=O)(O)O)ccc4c3c2)c(C)c1 [Compound 9, 2-(5-amino-2-(4-methoxy-2-methylphenethyl)benzo[f][1,7]naphthyridin-8-yl)-1,1-difluoro-2-oxoethylphosphonic acid]	390 nM
Cc1ccc2c(c1)nc(N)c1ncc(CCc3ccc(OCCP(=O)(O)O)cc3C)cc12 [Compound 22, 2-(4-(2-(5-amino-8-methylbenzo[f][1,7]naphthyridin-2-yl)ethyl)-3-methylphenoxy)ethylphosphonic acid]	1160 nM
Cc1ccc2c(c1)nc(N)c1ncc(CCc3ccc(OCc4cccc(P(=O)(O)O)c4)cc3C)cc12 [Compound 13, 3-((4-(2-(5-amino-8-methylbenzo[f][1,7]naphthyridin-2-yl)ethyl)-3-methylphenoxy)methyl)phenylphosphonic acid]	1050 nM
Cc1ccc2c(c1)nc(N)c1ncc(CCc3ccc(OCCCCCCP(=O)(O)O)cc3C)cc12 [Compound 23, 6-(4-(2-(5-amino-8-methylbenzo[f][1,7]naphthyridin-2-yl)ethyl)-3-methylphenoxy)hexylphosphonic acid]	791 nM
Cc1cc(OCCOCCOCCOCCP(=O)(O)O)ccc1CCc1cnc2c(N)nc3cc(CCC(=O)O)ccc3c2c1 [Compound 18, 3-(5-amino-2-(2-methyl-4-(2-(2-(2-(2-phosphonoethoxy)ethoxy)ethoxy)ethoxy)phenethyl)benzo[f][1,7]naphthyridin-8-yl)propanoic acid]	964 nM
Cc1ccc2c(c1)nc(N)c1ncc(CCc3ccc(OCCOCCC(F)(F)P(=O)(O)O)cc3C)cc12 [Compound 7, 3-(2-(4-(2-(5-amino-8-methylbenzo[f][1,7]naphthyridin-2-yl)ethyl)-3-methylphenoxy)ethoxy)-1,1-difluoropropylphosphonic acid]	1010 nM
Cc1ccc2c(c1)nc(N)c1ncc(CCc3ccc(OCCOCCOCCP(=O)(O)O)cc3C)cc12 [Compound 26, 2-(2-(2-(4-(2-(5-amino-8-methylbenzo[f][1,7]naphthyridin-2-yl)ethyl)-3-methylphenoxy)ethoxy)ethoxy)ethylphosphonic acid]	2590 nM
Cc1ccc2c(c1)nc(N)c1ncc(CCc3ccc(OCP(=O)(O)O)cc3C)cc12 [Compound 3, (4-(2-(5-amino-8-methylbenzo[f][1,7]naphthyridin-2-yl)ethyl)-3-methylphenoxy)methylphosphonic acid]	3170 nM

Same assay, conditions: HEK293 stably transfected with human TLR7 and NF-kB luciferase reporter; 7 hours incubation; relative to resiquimod set to 100%; read-out: Human TLR7 EC50 (nM) HEK293

Structure (SMILES)	EC50
Cc1ccc2c(c1)nc(N)c1ncc(CCc3ccc(OP(=O)(O)O)cc3C)cc12 [Compound 2, 4-(2-(5-amino-8-methylbenzo[f][1,7]naphthyridin-2-yl)ethyl)-3-methylphenyl dihydrogen phosphate]	315 nM
Cc1cc(OCCOCCP(=O)(O)O)ccc1CCc1cnc2c(N)nc3cc(CCC(=O)O)ccc3c2c1 [Compound 21, 3-(5-amino-2-(2-methyl-4-(2-(2-phosphonoethoxy)ethoxy)phenethyl)benzo[f][1,7]naphthyridin-8-yl)propanoic acid]	204 nM

Reference: patent US9045470B2, “Compounds and compositions as TLR activity modulators” (IRM LLC, priority 2009, dated 2015)
